According to patent US20070004689A1, “Antiangiogenic agents” (priority 2004, published 2007):
Read-outs that look alike come from different tables or passages of the source.

Columns and labels:
[1] = tested on: Rat hepatocyte suspensions; experiment: Hepatocyte incubations, rat; assay type: in vitro ADME; details: rat hepatocytes, NR = no reaction; for Hepatocyte Rat 60/120′ (1 uM): 60′ / Hepatocyte Rat 60/120′ (5 uM): 60′: 60 minutes; for Hepatocyte Rat 60/120′ (1 uM): 60′ / Hepatocyte Rat 60/120′ (1 uM): 120′: in % (unit assumed); for Hepatocyte Rat 60/120′ (1 uM): 120′ / Hepatocyte Rat 60/120′ (5 uM): 120′: 120 minutes; for Hepatocyte Rat 60/120′ (5 uM): 60′ / Hepatocyte Rat 60/120′ (5 uM): 120′: unit assumed
Protocol: (§1) Hepatocyte Incubations: An in vitro measure of metabolism using cells from rat and human liver. Rat and human hepatocyte suspensions (10^6 cells per mL of serum-free (H)CL15 culture medium) were incubated with 2 concentrations (1 and 5 μM) of each of the compounds. Stock solutions were prepared in DMSO, and were further diluted in culture medium to the final test concentrations. 7-Ethoxycoumarin (7-EC) were included as a positive control substrate for P450. A 0.1 M 7-EC stock solution was prepared in DMSO, and the final assay concentration was 100 μM. The reactions were initiated by the addition of the substrates, incubated at 37° C., and terminated after 0, 60 and 120 minutes by addition of acetonitrile. The positive 7-EC control reactions were stopped with perchloric acid or ZnSO4 and BaOH after 60-minutes of incubation. The reaction mixture was centrifuged to remove the cell debris, and the supernatant was used for subsequent analysis by HPLC/LC-MS. If necessary, the supernatants were flash frozen in liquid N2 and stored at −70° C. until further analysis. HPLC was used to analyze product formation from 7-EC. Analyses to determine the concentration of the test compounds were carried out using reverse phase HPLC with tandem mass spectrometric detection (LC-MS/MS). Samples were analyzed to measure the disappearance of parent compound over time. The rate of metabolism was estimated by fitting a curve to the data for each concentration against time using GraphPad Prism Version 3.02 software.

[2] = tested on: MDA-MB-231 a human breast carcinoma; experiment: BrdU proliferation assay, MDA-MB-231 (anti-tumor activity); assay type: cell-based; details: BrdU DNA synthesis, 48 h exposure, read-out: MDA-MB-231 (IC50 μM)
Excerpt: (§2) Cell Culture: Human umbilical vein endothelial cells (HUVEC) were obtained from Clonetics (San Diego, Calif.), MCF7 cells were the kind gift of Dr. Dorraya El Ashry (University of Michigan), MDA-MB-231 a human breast carcinoma, PC3 a human prostate carcinoma, and U87-MG a human glioma, cell lines were obtained from ATCC. HUVEC cultures were maintained for up to 5 passages in EGM containing bovine brain extract (Clonetics) and 1× antibiotic-antimycotic (BioWhittaker, Walkersville, Md.). MDA-MB-231, PC3, U87-MG and MCF-7 cells were maintained in DMEM/F12 (1:1) containing 10% (v/v) fetal bovine serum (Hyclone Laboratories, Logan, Utah) and 1× antibiotic-antimycotic. MCF7 cells were used between passage 60 and passage 100.
(§3) Proliferation Assays: Proliferation was measured by cell counting using a Coulter Zl cell counter (Coulter Corporation, Hialeah, Fla.) or by evaluation of DNA synthesis. Each condition was done in triplicate and experiments were repeated at least twice. To determine estrogenicity of the analogs, MCF7 estrogen-dependent proliferation assays were performed. The cells were seeded in complete media at 10,000 cells/well in a 24 well plate after allowing the cells to adhere overnight and the seeding density was determined by cell counts. Cells were washed with PBS (37° C.) and starved by placing them in IMEM-phenol red free media containing 2% charcoal-dextran fetal bovine-stripped serum (Valley Biomedical, Winchester, Va.) and 1× antibiotic-antimycotic. After 3 days of starvation, cells were treated with or without increasing concentrations of compounds, replacing the media every 2-3 days and counted after 7 days of treatment. In order to ensure that only the added test compounds stimulated growth, experiments were performed only with cell cultures that duplicated less than once during the starvation period. Values are expressed as MCF7 stimulation index (SI) relative to 2ME2 (defined as 1.00). A value less than 1.00 indicates reduced estrogenicity. Estradiol is used as a positive control.
(§4) To determine anti-tumor and anti-angiogenic activities of the analogs, proliferation assays were performed by evaluating detection of DNA synthesis by use of the 5-bromo-2′-deoxyuridine (BrdU) cell proliferation colorimetric ELISA kit from Roche (Indianapolis, Ind.) according to the manufacturer's instructions. For BrdU assays, the cells were seeded at 1,000 cells/well (MDA-MB-231, anti-tumor activity) or 3,000 cells/well (HUVEC, anti-angiogenic activity) in a 96 well plate, allowed to attach overnight and then exposed to the compound for 48 h. IC50 value is the concentration at which cell proliferation is inhibited by 50%.
(§5) Antiproliferative activity of the NCEs were assessed in tumor cell lines (MDA-MB-231 a breast carcinoma, PC3 a prostate carcinoma and U87-MG a glioma) and endothelial cells (HUVEC).

[3] = tested on: human hepatocyte suspensions; experiment: Hepatocyte incubations, human; assay type: in vitro ADME; details: human hepatocytes, NR = no reaction; for Hepatocyte Human 60/120′ (1 uM): 120′ / Hepatocyte Human 60/120′ (5 uM): 120′: 120 minutes; for Hepatocyte Human 60/120′ (5 uM): 60′ / Hepatocyte Human 60/120′ (1 uM): 60′: 60 minutes
Protocol: as §1

[4] = tested on: CYP450 (CYP1A2, CYP2C9, CYP2C19, CYP2D6, CYP3A) in pooled human liver microsomes; experiment: CYP450 inhibition using human microsomes; assay type: in vitro ADME; details: test compound 0.034-25 μM, CYP inhibited
Protocol: Determination of CYP450 inhibition and IC50 value using human microsomes: CYP450 inhibition provides a measure of potential issues with co-medication, since CYP450 enzymes metabolize many drugs. Microsomal incubation mixtures (500 μL) were prepared in HEPES buffer (50 mM HEPES, 15 mM MgCl2, 0.1 mM EDTA, pH 7.6) containing a NADPH regenerating system (1 mM NADPH, 10 mM glucose-6-phosphate 1 IU glucose-6-phosphate dehydrogenase), pooled human liver microsomes (0.5 mg protein), and 5 μL of 7 concentrations of compounds and positive control inhibitors (see Tables IV, V and VI).
After addition of the compounds or positive control inhibitors, the samples were pre-incubated at 37° C. for approximately 5 minutes. Subsequently, the P450 substrate cocktail were added to the reaction mixture and incubated for 20 minutes at 37° C. Reactions were terminated by the addition of 250 μL of methanol containing 5 μM dextrorphan as an internal standard (IS). The samples were vortexed briefly, placed on ice, and then centrifuged at approximately 12000×g for 5 minutes to remove debris. The supernatant from each sample was then transferred to a separate vial for LC-MS/MS analysis. Analysis to determine the amount of substrate specific metabolites (relative to the control samples) was carried out using reverse phase HPLC with tandem mass spectrometric detection (LC-MS/MS). Analysis of the data was carried out using Micromass MetaboLynx and QuanLynx software Versions 3.5 to determine the amount of the specific substrate metabolites produced in each sample (relative to the control samples).

[5] = tested on: Human umbilical vein endothelial cells (HUVEC); experiment: BrdU proliferation assay, HUVEC (anti-angiogenic activity); assay type: cell-based; details: BrdU DNA synthesis, 48 h exposure, read-out: HUVEC (IC50 μM)
Excerpt: as §2, §3, §4, §5

U87-MG a human glioma = experiment: Proliferation assay, U87-MG; assay type: cell-based; details: proliferation, read-out: U87-MG (IC50 μM)
Excerpt: as §2, §3, §4, §5

[6] = tested on: PC3 a human prostate carcinoma; experiment: Proliferation assay, PC3; assay type: cell-based; details: proliferation, read-out: PC3 (IC50 μM)
Excerpt: as §2, §3, §4, §5

Row | SMILES | Hepatocyte Rat 60/120′ (1 uM): 60′ [1] | Hepatocyte Rat 60/120′ (1 uM): 120′ [1] | Hepatocyte Rat 60/120′ (5 uM): 60′ [1] [%] | IC50 ([2]; Homo sapiens, MDA-MB-231) [µM] | Hepatocyte Human 60/120′ (1 uM): 120′ [3] | Hepatocyte Human 60/120′ (5 uM): 60′ [3] | Hepatocyte Human 60/120′ (5 uM): 120′ [3] | CYP450 inhib. [4] | IC50 ([5]; Homo sapiens, HUVEC) [µM] | IC50 (U87-MG a human glioma; Homo sapiens, U-87 MG) [µM] | IC50 ([6]; Homo sapiens) [µM] | Hepatocyte Rat 60/120′ (5 uM): 120′ [1] [%] | Hepatocyte Human 60/120′ (1 uM): 60′ [3] | IC50 [2] [µM] | IC50 [5] [µM] | IC50 (U87-MG a human glioma) [µM] | IC50 [6] [µM]
1 | C=C1CC[C@H]2[C@@H]3CCc4cc(C(N)=O)c(OC)cc4[C@H]3CC[C@]12C [Compound 60, 2-Methoxy-17-methyleneestra-1,3,5(10)-triene-3-carboxamide] | 99 | 87 | 87 | 0.19 ± 0.08 | 91 | 96 | 93 | None | 0.12 ± 0.06 | 0.25 ± 0.02 | 0.25 ± 0.01 | – | – | – | – | – | –
2 | COc1cc2c(cc1C(N)=O)CC[C@@H]1[C@@H]2CC[C@]2(C)C(=O)CC[C@@H]12 [Compound 54, 2-methoxy-17-oxoestra-1,3,5(10)-triene-3-carboxamide] | 78 | – | 95 | 2.2 ± 0.43 | 102 | – | 103 | None | 5.46 ± 1.57 | 2.23 ± 0.4 | 4.64 ± 0.9 | 101 | 99 | – | – | – | –
3 | COc1cc2c(cc1C(N)=O)CC[C@@H]1[C@@H]2CC[C@]2(C)C=CC[C@@H]12 [Compound 63, 3-carboxamide-2-methoxy-1,3,5(10)16-estratetraene] | 77 | 67 | 78 | – | 70 | 92 | 71 | None | – | – | – | 87 | 52 | 0.19 ± 0.04 | 0.13 ± 0.05 | 0.23 ± 0.08 | 0.21 ± 0.1
4 | COc1cc2c(cc1C(N)=O)CC[C@@H]1[C@@H]2CC[C@]2(C)CCC[C@@H]12 [Compound 57, (2-Methoxyestra-1,3,5(10)-trien-3-yl)-3-carboxamide] | 91 | 85 | 95 | – | 98 | 117 | 118 | None | – | – | – | 83 | 111 | 2.37 ± 0.8 | 0.96 ± 0.26 | 10 ± 2.49 | 5.7 ± 0.58
